Where two headings read alike, the source gives them in different places.
Target: T1, human wildtype CFTR (Homo sapiens, UniProt P13569)
T1 construct: expressed in transfected cells; host or cells: Fischer rat thyroid (FRT) cells
Assay: Fluorescence platereader assay of CFTR-mediated iodide influx (YFP quenching) in FRT cells
Type: cell-based
Conditions: for inhibition at 5 µM / inhibition at 25 µM: FRT; for IC50: apparent IC50 from concentration-inhibition data, fluorescence platereader assay
Description: A. Cell lines and compounds—Fischer rat thyroid (FRT) cells co-expressing human wildtype CFTR and the halide indicator YFP-H148Q/1152L were generated as described (see, e.g., Ma et al., J. Clin. Invest. 110:1651-1658 (2002)). Cells were plated in 96-well black-walled microplates (Corning Costar) at a density of 20,000 cells per well in Coon's modified F12 medium supplemented with 5% fetal calf serum, 2 mM L-glutamine, 100 U/mL penicillin, and 100 μg/ml streptomycin. Assays were performed at 48 h after plating the cells when the cells were just confluent. For some experiments, measurements were made using T84 human intestinal epithelial cells and for other experiments, measurements were obtained using primary cultures of human bronchial epithelial cells, which were obtained and grown essentially as previously described (see, e.g., 3 and 27).
B. Compound Screening—Assays were performed using an automated screening platform (Beckman) equipped with FLUOStar fluorescence platereaders (BMG Lab Technologies, Offenburg, Germany) as described (see Ma et al., supra). Each well of a 96-well plate containing FRT cells was washed 3 times in PBS (300 μL/wash), leaving 50 μL PBS. […] After 15 min, 96-well plates were transferred to a plate reader for fluorescence assay. Each well was assayed individually for CFTR-mediated iodide influx by recording fluorescence continuously (200 ms per point) for 2 s (baseline) and then for 10 s after rapid addition of 160 μL of isosmolar PBS in which 137 mM chloride was replaced by iodide. The initial rate of iodide influx was computed from fluorescence data by non-linear regression.
Collections of synthetic and natural compounds were screened according to the screening procedures described in Example 2. A cell-based fluorescence assay was used in which CFTR inhibitors were identified by reduced iodide influx in FRT cells co-expressing human CFTR and a YFP halide sensor. CFTR was maximally activated by a mixture of agonists having different activating mechanisms. Inhibition of iodide influx was observed as reduced YFP fluorescence quenching in response to rapid iodide addition to each well of 96-well plates. […]

[1] = Table 2, screening, 5 μM, read-out: % Inhibition at 5 μM
[2] = Table 2, screening, 25 μM, read-out: % Inhibition at 25 μM

T1 sequence (P13569 whole entry): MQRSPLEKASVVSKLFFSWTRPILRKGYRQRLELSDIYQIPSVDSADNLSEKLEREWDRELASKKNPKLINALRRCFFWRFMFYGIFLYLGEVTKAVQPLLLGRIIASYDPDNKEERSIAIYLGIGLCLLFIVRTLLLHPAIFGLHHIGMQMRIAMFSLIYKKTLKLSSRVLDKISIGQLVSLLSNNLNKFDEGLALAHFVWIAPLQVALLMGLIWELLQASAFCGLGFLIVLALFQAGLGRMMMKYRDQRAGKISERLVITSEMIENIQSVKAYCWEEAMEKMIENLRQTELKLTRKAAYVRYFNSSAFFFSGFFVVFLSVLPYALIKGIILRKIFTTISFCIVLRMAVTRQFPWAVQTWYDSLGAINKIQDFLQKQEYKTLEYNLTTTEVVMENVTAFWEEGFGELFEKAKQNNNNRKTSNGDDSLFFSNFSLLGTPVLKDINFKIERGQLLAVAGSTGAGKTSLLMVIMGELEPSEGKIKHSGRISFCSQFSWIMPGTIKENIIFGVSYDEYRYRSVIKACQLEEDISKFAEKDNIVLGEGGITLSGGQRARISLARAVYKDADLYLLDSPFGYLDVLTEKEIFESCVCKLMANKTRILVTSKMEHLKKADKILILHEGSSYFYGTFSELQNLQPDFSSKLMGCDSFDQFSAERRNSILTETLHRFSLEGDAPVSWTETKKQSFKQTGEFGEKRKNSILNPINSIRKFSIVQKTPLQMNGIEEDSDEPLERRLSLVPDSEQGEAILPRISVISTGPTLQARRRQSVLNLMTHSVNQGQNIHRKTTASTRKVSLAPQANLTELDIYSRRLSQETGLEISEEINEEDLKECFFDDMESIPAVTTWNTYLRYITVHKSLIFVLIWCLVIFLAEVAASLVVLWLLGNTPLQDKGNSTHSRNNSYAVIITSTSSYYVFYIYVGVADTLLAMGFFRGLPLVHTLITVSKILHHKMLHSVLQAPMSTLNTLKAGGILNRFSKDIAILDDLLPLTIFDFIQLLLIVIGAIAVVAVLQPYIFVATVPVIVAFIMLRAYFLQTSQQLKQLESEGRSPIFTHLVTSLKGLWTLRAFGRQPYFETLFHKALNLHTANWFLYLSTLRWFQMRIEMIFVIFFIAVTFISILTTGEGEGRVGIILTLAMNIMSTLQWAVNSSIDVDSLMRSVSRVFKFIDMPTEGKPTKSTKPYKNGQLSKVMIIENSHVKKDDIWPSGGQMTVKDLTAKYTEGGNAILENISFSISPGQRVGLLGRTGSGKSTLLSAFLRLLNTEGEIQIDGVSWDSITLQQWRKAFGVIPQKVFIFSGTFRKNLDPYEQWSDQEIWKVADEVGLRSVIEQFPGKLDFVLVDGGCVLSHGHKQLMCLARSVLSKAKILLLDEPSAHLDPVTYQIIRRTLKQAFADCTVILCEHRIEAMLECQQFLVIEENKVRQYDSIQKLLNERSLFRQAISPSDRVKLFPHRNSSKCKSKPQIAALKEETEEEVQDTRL

| Structure (SMILES) | inhibition at 5 µM [1] [%] | inhibition at 25 µM [2] [%] | IC50 [nM] | CFTR inhibition activity (structure-activity analysis) | inhibition at 5 µM (read-out: % inhibition at 25/5 μM (5 μM value), Table 1, 5 μM compound) [%] | inhibition at 25 µM (read-out: % inhibition at 25/5 μM (25 μM value), Table 1, 25 μM compound) [%] |
| --- | --- | --- | --- | --- | --- | --- |
| Cn1c(=O)c2c(-c3ccccc3)n3c(c2n(C)c1=O)C(c1cccc(O)c1O)Nc1ccccc1-3 (stereo not shown) | < 10 | 38 |  |  |  |  |
| COc1ccc(-c2c3c(=O)n(C)c(=O)n(C)c3c3n2-c2ccccc2NC3c2cccc(F)c2)cc1 (stereo not shown) | < 10 | 37 |  |  |  |  |
| COc1ccc(-c2c3c(=O)n(C)c(=O)n(C)c3c3n2-c2ccccc2NC3c2cccc(C)c2)cc1 (stereo not shown) | < 10 | 35 |  |  |  |  |
| COc1ccccc1C1Nc2cc(C)c(C)cc2-n2c(-c3ccccc3)c3c(=O)n(C)c(=O)n(C)c3c21 (stereo not shown) | < 10 | 47 |  |  |  |  |
| COc1ccc(-c2c3c(=O)n(C)c(=O)n(C)c3c3n2-c2ccccc2NC3c2cccc(OC)c2)cc1 (stereo not shown) | 13 | 47 |  |  |  |  |
| CCOc1cc(C2Nc3ccccc3-n3c(-c4ccccc4)c4c(=O)n(C)c(=O)n(C)c4c32)ccc1O (stereo not shown) | < 10 | 47 |  |  |  |  |
| COc1ccc(-c2c3c(=O)n(C)c(=O)n(C)c3c3n2-c2ccccc2NC3c2ccccc2Cl)cc1 (stereo not shown) | < 10 | 47 |  |  |  |  |
| Cc1cc2c(cc1C)-n1c(-c3ccccc3F)c3c(=O)n(C)c(=O)n(C)c3c1C(c1ccco1)N2 (stereo not shown) | 41 | 44 |  |  |  |  |
| Cc1ccccc1C1Nc2ccccc2-n2c(-c3ccccc3)c3c(=O)n(C)c(=O)n(C)c3c21 (stereo not shown) | 13 | 41 |  |  |  |  |
| Cc1cc2c(cc1C)-n1c(-c3ccccc3F)c3c(=O)n(C)c(=O)n(C)c3c1C(c1ccccc1F)N2 (stereo not shown) | 23 | 35 |  |  |  |  |
| COc1ccc(-c2c3c(=O)n(C)c(=O)n(C)c3c3n2-c2ccccc2NC3c2cccc(O)c2)cc1 (stereo not shown) | < 10 | 33 |  |  |  |  |
| C=CCc1cccc(C2Nc3ccccc3-n3c(-c4ccccc4)c4c(=O)n(C)c(=O)n(C)c4c32)c1O (stereo not shown) | < 10 | 31 |  |  |  |  |
| Cc1ccc(-c2c3c(=O)n(C)c(=O)n(C)c3c3n2-c2ccccc2NC3c2cccc(F)c2F)cc1 (stereo not shown) | 27 | 31 |  |  |  |  |
| COc1ccc(O)c(C2Nc3ccccc3-n3c(-c4ccccc4)c4c(=O)n(C)c(=O)n(C)c4c32)c1 (stereo not shown) | < 10 | 33 |  |  |  |  |
| Cc1ccc(-c2c3c(=O)n(C)c(=O)n(C)c3c3n2-c2ccccc2NC3c2cccs2)cc1 (stereo not shown) | < 10 | 35 |  |  |  |  |
| Cn1c(=O)c2c(-c3ccccc3)n3c(c2n(C)c1=O)C(c1cc([N+](=O)[O-])ccc1O)Nc1ccccc1-3 (stereo not shown) | 12 | 40 |  |  |  |  |
| COc1ccc(-c2c3c(=O)n(C)c(=O)n(C)c3c3n2-c2ccccc2NC3c2ccccc2)cc1 (stereo not shown) | < 10 | 39 |  |  |  |  |
| COc1ccc(O)c(C2Nc3ccccc3-n3c(-c4ccccc4C)c4c(=O)n(C)c(=O)n(C)c4c32)c1 (stereo not shown) | < 10 | 38 |  |  |  |  |
| Cn1c(=O)c2c(-c3ccccc3)n3c(c2n(C)c1=O)C(c1ccc(O)cc1O)Nc1ccccc1-3 (stereo not shown) | < 10 | 35 |  |  |  |  |
| COc1ccc(-c2c3c(=O)n(C)c(=O)n(C)c3c3n2-c2ccccc2NC3c2cccs2)cc1 (stereo not shown) | < 10 | 34 |  |  |  |  |
| COc1cccc(C2Nc3ccccc3-n3c(-c4cccc(C)c4)c4c(=O)n(C)c(=O)n(C)c4c32)c1O (stereo not shown) | < 10 | 31 |  |  |  |  |
| Cc1ccccc1-c1c2c(=O)n(C)c(=O)n(C)c2c2n1-c1ccccc1NC2c1cccc(O)c1O (stereo not shown) | < 10 | 30 |  |  |  |  |
| Cc1cccc(-c2c3c(=O)n(C)c(=O)n(C)c3c3n2-c2ccccc2NC3c2ccc(C)o2)c1 (stereo not shown) [PPQ-101, 7,9-Dimethyl-11-(3-methylphenyl)-6-(5-methylfuran-2-yl)-5,6-dihydro-pyrimido[4′,5′-3,4]pyrrolo[1,2-a]quinoxaline-8,10-(7H,9H)-dione] | > 95 | > 95 | 700 |  |  |  |
| Cc1ccc(C(=O)Nc2ccccc2-n2cc3c(c2-c2ccccc2)c(=O)n(C)c(=O)n3C)o1 [PPQ-102b, N-(2-(1,3-dimethyl-2,4-dioxo-5-phenyl-3,4-dihydro-1H-pyrrolo[3,4-d]pyrimidin-6(2H)-yl)phenyl)-5-methylfuran-2-carboxamide] |  |  |  | abolished CFTR inhibition activity |  |  |
| Cc1ccc(C2Nc3ccccc3-n3c(-c4ccccc4C)c4c(=O)n(C)c(=O)n(C)c4c32)o1 (stereo not shown) [PPQ-103, 7,9-Dimethyl-11-(2-methylphenyl)-6-(5-methylfuran-2-yl)-5,6-dihydro-pyrimido[4′,5′-3,4]pyrrolo[1,2-a]quinoxaline-8,10-(7H,9H)-dione] | 63 | > 95 | 800 |  |  |  |
| Cc1ccc(C2Nc3cc(C)c(C)cc3-n3c(-c4ccccc4)c4c(=O)n(C)c(=O)n(C)c4c32)o1 (stereo not shown) [PPQ-104, 2,3,7,9-Tetramethyl-11-phenyl-6-(5-methylfuran-2-yl)-5,6-dihydro-pyrimido[4′,5′-3,4]pyrrolo[1,2-a]quinoxaline-8,10-(7H,9H)-dione] | 84 | 90 | 800 |  | 84 | 90 |

Now from value to molecule:

| inhibition at 5 µM [1] [%] | inhibition at 25 µM [2] [%] | IC50 [nM] | CFTR inhibition activity (structure-activity analysis) | inhibition at 5 µM (read-out: % inhibition at 25/5 μM (5 μM value), Table 1, 5 μM compound) [%] | inhibition at 25 µM (read-out: % inhibition at 25/5 μM (25 μM value), Table 1, 25 μM compound) [%] | Structure (SMILES) |
| --- | --- | --- | --- | --- | --- | --- |
| < 10 | 38 |  |  |  |  | Cc1ccccc1-c1c2c(=O)n(C)c(=O)n(C)c2c2n1-c1ccccc1NC2c1ccc(O)c(O)c1 (stereo not shown) |
| < 10 | 41 |  |  |  |  | COc1cc(O)ccc1C1Nc2ccccc2-n2c(-c3ccccc3F)c3c(=O)n(C)c(=O)n(C)c3c21 (stereo not shown) |
| < 10 | 36 |  |  |  |  | Cn1c(=O)c2c(-c3ccccc3F)n3c(c2n(C)c1=O)C(c1ccc(O)cc1O)Nc1ccccc1-3 (stereo not shown) |
| < 10 | 45 |  |  |  |  | Cc1ccccc1-c1c2c(=O)n(C)c(=O)n(C)c2c2n1-c1ccccc1NC2c1ccc(C#N)cc1 (stereo not shown) |
| < 10 | 44 |  |  |  |  | Cn1c(=O)c2c(-c3ccccc3F)n3c(c2n(C)c1=O)C(c1ccc(Cl)cc1)Nc1ccccc1-3 (stereo not shown) |
| 13 | 38 |  |  |  |  | Cc1ccc(C2Nc3ccccc3-n3c(-c4ccccc4C)c4c(=O)n(C)c(=O)n(C)c4c32)cc1 (stereo not shown) |
| < 10 | 34 |  |  |  |  | Cn1c(=O)c2c(-c3ccc(Cl)cc3)n3c(c2n(C)c1=O)C(c1ccccc1)Nc1ccccc1-3 (stereo not shown) |
| < 10 | 33 |  |  |  |  | COc1ccc(C2Nc3ccccc3-n3c(-c4ccccc4F)c4c(=O)n(C)c(=O)n(C)c4c32)cc1 (stereo not shown) |
| < 10 | 32 |  |  |  |  | CCOc1ccc(C2Nc3ccccc3-n3c(-c4ccccc4C)c4c(=O)n(C)c(=O)n(C)c4c32)cc1 (stereo not shown) |
| < 10 | 41 |  |  |  |  | COc1cccc(C2Nc3ccccc3-n3c(-c4ccc(Cl)cc4)c4c(=O)n(C)c(=O)n(C)c4c32)c1 (stereo not shown) |
| < 10 | 39 |  |  |  |  | COc1ccc(-c2c3c(=O)n(C)c(=O)n(C)c3c3n2-c2ccccc2NC3c2ccccc2F)cc1 (stereo not shown) |
| < 10 | 38 |  |  |  |  | Cc1ccc(C2Nc3ccccc3-n3c(-c4ccccc4)c4c(=O)n(C)c(=O)n(C)c4c32)cc1 (stereo not shown) |
| < 10 | 31 |  |  |  |  | COc1ccc(C2Nc3ccccc3-n3c(-c4ccc(Cl)cc4)c4c(=O)n(C)c(=O)n(C)c4c32)cc1 (stereo not shown) |

Reference: patent publication US8609661B2, “Pyrimido-pyrrolo-quinoxalinedione inhibitors of cystic fibrosis transmembrane conductance regulator protein and uses therefor” (The Regents of the University of California, priority 2009, dated 2013)
